In patent publication US20120015907A1, “Furopyridine compounds and uses thereof” (NOVARTIS AG, priority 2010, published 2012):

Assays:
[1] = target: T1, HCV polymerase (Hepatitis C virus genotype 1b, UniProt Q9WMX2); test: biochemical; details: polymerase assay of Biological Example 1; read-out: NS5B polymerase IC50
T1 construct: (His)6 (C)

[2] = system: HCV replicon I389luc-ubi-neo/NS3-3'/ET in ET (Huh-lucubineo-ET) cells; test: Replicon assay (Biological Example 2), luciferase read-out; format: cell-based; details: Hepatitis C virus, luciferase activity 48 hours after compound addition
Outline: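 ET cells stably carry the replicon with adaptive mutations E1202G, […] and K1846T. Compound is added 24 h after plating at 0.1 nM–50 μM final (10-point, 3-fold dilutions) with 0.5% DMSO, and luciferase is read 48 h later. EC50 comes from a Hill-equation fit of % inhibition versus no-compound control.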

| Compound | IC50 [1] | IC50 [2] |
| --- | --- | --- |
| CNC(=O)c1c(-c2ccc(F)cc2)oc2nc3c(cc12)C(C)CCCCN3S(C)(=O)=O (stereo not drawn) [Example 36.3, 2-(4-Fluoro-phenyl)-10-methanesulfonyl-5-methyl-5,6,7,8,9,10-hexahydro-1-oxa-10,11-diaza-cycloocta[f]indene-3-carboxylic acid methylamide] | 70 nM | ≤ 100 nM |
| CNC(=O)c1c(-c2ccc(F)cc2)oc2nc3c(cc12)[C@@H](C)C[C@H](O)CN3S(C)(=O)=O (single isomer, unassigned) [Example 34] | 9 nM | ≤ 100 nM |
| CNC(=O)c1c(-c2ccc(F)cc2)oc2nc(N(CCCCS(C)(=O)=O)S(C)(=O)=O)c(I)cc12 [Example 18.997, 2-(4-fluorophenyl)-5-iodo-N-methyl-6-(N-(4-(methylsulfonyl)butyl)methylsulfonamido)furo[2,3-b]pyridine-3-carboxamide] | 22 nM | ≤ 100 nM |
| CNC(=O)c1c(-c2ccc(C)cc2)oc2nc(N(CCCC(C)(C)C(=O)O)S(C)(=O)=O)c(C3CC3)cc12 [Example 24, 5-[(5-Cyclopropyl-3-methylcarbamoyl-2-p-tolyl-furo[2,3-b]pyridin-6-yl)-methanesulfonyl-amino]-2,2-dimethyl-pentanoic acid] | 1 nM | ≤ 100 nM |
| CCc1ccc(-c2oc3nc(N(CCCCC(=O)O)S(C)(=O)=O)c(C4CC4)cc3c2C(=O)NC)cc1 [Example 27.8, 5-(N-(5-cyclopropyl-2-(4-ethylphenyl)-3-(methylcarbamoyl)furo[2,3-b]pyridin-6-yl)methylsulfonamido) pentanoic acid] | 1 nM | ≤ 100 nM |
| CCc1cc2c(C(=O)NC)c(-c3ccc(F)cc3)oc2nc1N(CCCN1CCCCS1(=O)=O)S(C)(=O)=O [Example 23.7, 6-{[3-(1,1-Dioxo-[1,2]thiazinan-2-yl)-propyl]-methanesulfonyl-amino}-5-ethyl-2-(4-fluorophenyl)-furo[2,3-b]pyridine-3-carboxylic acid methylamide] | 5 nM | ≤ 100 nM |
| C=CCCN(CCCN(c1nc2oc(-c3ccc(F)cc3)c(C(=O)NC)c2cc1I)S(C)(=O)=O)S(C)(=O)=O [Example 23.994, 6-(N-(3-(N-(but-3-enyl)methylsulfonamido)propyl)methylsulfonamido)-2-(4-fluorophenyl)-5-iodo-N-methylfuro[2,3-b]pyridine-3-carboxamide] | 57 nM | ≤ 100 nM |
| CNC(=O)c1c(-c2ccc(F)cc2)oc2nc(N(CCCCC(=O)O)S(C)(=O)=O)c(I)cc12 [Example 19, 5-{[2-(4-Fluoro-phenyl)-5-iodo-3-methylcarbamoyl-furo[2,3-b]pyridin-6-yl]-methanesulfonyl-amino}-pentanoic acid] | 9 nM | ≥ 5000 nM |
| CNC(=O)c1c(-c2ccc(F)cc2)oc2nc(N(CCO)S(C)(=O)=O)c(C3CC3)cc12 [Example 2.2, 5-cyclopropyl-2-(4-fluorophenyl)-6-(N-(2-hydroxyethyl)methylsulfonamido)-N-methylfuro[2,3-b]pyridine-3-carboxamide] | 54 nM | ≤ 100 nM |
| CNC(=O)c1c(-c2ccc(Cl)cc2)oc2nc(N(CCCS(C)(=O)=O)S(C)(=O)=O)c(C3CC3)cc12 [Example 25.5, 2-(4-chlorophenyl)-5-cyclopropyl-N-methyl-6-(N-(3-(methylsulfonyl)propyl)methylsuIfonamido)furo[2,3-b]pyridine-3-carboxamide] | 1 nM | ≤ 100 nM |
| CNC(=O)c1c(-c2ccc(Oc3ccccc3)cc2)oc2nc(N(C)S(C)(=O)=O)c(C3CC3)cc12 [Example 16, 5-cyclopropyl-N-methyl-6-(N-methylmethylsulfonamido)-2-(4-phenoxyphenyl)furo[2,3-b]pyridine-3-carboxamide] | 3 nM | ≤ 100 nM |
| CNC(=O)c1c(-c2ccc(F)cc2)oc2nc(N(CCCC3CCCS3(=O)=O)S(C)(=O)=O)c(I)cc12 (stereo not drawn) [Example 18.97, 6-{[3-(1,1-Dioxo-tetrahydrothiophen-2-yl)-propyl]-methanesulfonyl-amino}-2-(4-fluoro-phenyl)-5-iodo-furo[2,3-b]pyridine-3-carboxylic acid methylamide] | 32 nM | ≤ 100 nM |
| CNC(=O)c1c(-c2ccc(F)cc2)oc2nc(N(CCCCC(=O)OC)S(C)(=O)=O)c(C3CC3)cc12 [Example 26.8, methyl 5-(N-(5-cyclopropyl-2-(4-fluorophenyl)-3-(methylcarbamoyl)furo[2,3-b]pyridin-6-yl)methylsulfonamido) pentanoate] | 5 nM | ≤ 100 nM |
| CNC(=O)c1c(-c2ccc(C)cc2)oc2nc(N(CCCC3CCCS3(=O)=O)S(C)(=O)=O)c(I)cc12 (stereo not drawn) [Example 18.99, 6-{[3-(1,1-Dioxo-tetrahydrophiophen-2-yl)-propyl]-methanesulfonyl-amino}-5-iodo-2-p-totyl-furo[2,3-b]pyridine-3-carboxylic acid methylamide] | 5 nM | ≤ 100 nM |
| CNC(=O)c1c(-c2ccc(F)cc2)oc2nc3c(cc12)C(C)C(O)CCN3S(C)(=O)=O (stereo not drawn) [Example 31, 2-(4-Fluoro-phenyl)-6-hydroxy-9-methanesulfonyl-5-methyl-6,7,8,9-tetrahydro-5H-1-oxa-9,10-diaza-cyclohepta[f]indene-3-carboxylic acid methylamide] | 35 nM | ≤ 100 nM |
| CCc1cc2c(C(=O)NC)c(-c3ccc(F)cc3)oc2nc1N(CCCS(C)(=O)=O)S(C)(=O)=O [Example 21.992, 5-ethyl-2-(4-fluorophenyl)-N-methyl-6-(N-(3-(methylsulfonyl)propyl)methylsulfonamido)furo[2,3-b]pyridine-3-carboxamide] | 65 nM | ≤ 100 nM |
| CNC(=O)c1c(-c2ccc(C)cc2)oc2nc(N(CCC(C)O)S(C)(=O)=O)c(C3CC3)cc12 (stereo not drawn) [Example 26.7, 5-cyclopropyl-6-(N-(3-hydroxybutyl)methylsulfonamido)-N-methyl-2-p-tolylfuro[2,3-b]pyridine-3-carboxamide] | 2 nM | ≤ 100 nM |
| C=Cc1cc2c(C(=O)NC)c(-c3ccc(F)cc3)oc2nc1N(CCCC(=O)OC)S(C)(=O)=O [Example 24.2, methyl 4-(N-(2-(4-fluorophenyl)-3-(methylcarbamoyl)-5-vinylfuro[2,3-b]pyridin-6-yl)methylsulfonamido) butanoate] | 42 nM | ≤ 100 nM |
| CCc1cc2c(C(=O)NC)c(-c3ccc(F)cc3)oc2nc1N(CCCCS(C)(=O)=O)S(C)(=O)=O [Example 23, 5-Ethyl-2-(4-fluoro-phenyl)-6-[methanesulfonyl-(4-methanesulfonyl-butyl)-amino]-furo[2,3-b]pyridine-3-carboxylic acid methylamide] | 22 nM | ≤ 100 nM |
| CNC(=O)c1c(-c2ccc(C)cc2)oc2nc(N(CCCCC(=O)O)S(C)(=O)=O)c(C3CC3)cc12 [Example 25.1, 5-(N-(5-cyclopropyl-3-(methylcarbamoyl)-2-p-tolylfuro[2,3-b]pyridin-6-yl)methylsulfonamido)pentanoic acid] | 2 nM | ≤ 100 nM |
| CCc1cc2c(C(=O)NC)c(-c3ccc(F)cc3)oc2nc1N(CCCS(=O)(=O)c1ccccc1)S(C)(=O)=O [Example 21.97, 5-ethyl-2-(4-fluorophenyl)-N-methyl-6-(N-(3-(phenylsulfonyl)propyl)methylsulfonamido)furo[2,3-b]pyridine-3-carboxamide] | 3 nM | ≤ 100 nM |
